Assay results taken from publication PMC12018053 (Biochemistry and Biophysics Reports, 2025).
≈ marks a conversion by molar mass, not a printed value.

Key:
Rat sEH = molecular target: T1, Rat sEH (Rattus norvegicus, UniProt P80299); experiment: sEH fluorescent-based inhibition assay; format: biochemical
T1 sequence (P80299 1-554): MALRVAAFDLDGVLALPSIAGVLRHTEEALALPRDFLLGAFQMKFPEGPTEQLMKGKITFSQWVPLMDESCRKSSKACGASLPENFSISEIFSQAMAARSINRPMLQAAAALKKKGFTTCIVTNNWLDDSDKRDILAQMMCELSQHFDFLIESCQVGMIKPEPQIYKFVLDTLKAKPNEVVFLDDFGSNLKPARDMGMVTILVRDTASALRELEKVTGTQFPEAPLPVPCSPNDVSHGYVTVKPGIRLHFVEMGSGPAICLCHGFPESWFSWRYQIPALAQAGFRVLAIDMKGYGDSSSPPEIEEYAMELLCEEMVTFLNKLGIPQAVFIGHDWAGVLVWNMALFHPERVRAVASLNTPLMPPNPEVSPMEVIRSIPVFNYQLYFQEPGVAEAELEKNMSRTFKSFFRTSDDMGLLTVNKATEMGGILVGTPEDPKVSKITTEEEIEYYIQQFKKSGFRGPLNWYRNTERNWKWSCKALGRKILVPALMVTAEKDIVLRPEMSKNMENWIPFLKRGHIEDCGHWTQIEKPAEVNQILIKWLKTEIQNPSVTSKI

Human sEH = molecular target: T2, Human sEH (Homo sapiens, UniProt P34913); experiment: sEH fluorescent-based inhibition assay; format: biochemical
T2 sequence (P34913 1-555): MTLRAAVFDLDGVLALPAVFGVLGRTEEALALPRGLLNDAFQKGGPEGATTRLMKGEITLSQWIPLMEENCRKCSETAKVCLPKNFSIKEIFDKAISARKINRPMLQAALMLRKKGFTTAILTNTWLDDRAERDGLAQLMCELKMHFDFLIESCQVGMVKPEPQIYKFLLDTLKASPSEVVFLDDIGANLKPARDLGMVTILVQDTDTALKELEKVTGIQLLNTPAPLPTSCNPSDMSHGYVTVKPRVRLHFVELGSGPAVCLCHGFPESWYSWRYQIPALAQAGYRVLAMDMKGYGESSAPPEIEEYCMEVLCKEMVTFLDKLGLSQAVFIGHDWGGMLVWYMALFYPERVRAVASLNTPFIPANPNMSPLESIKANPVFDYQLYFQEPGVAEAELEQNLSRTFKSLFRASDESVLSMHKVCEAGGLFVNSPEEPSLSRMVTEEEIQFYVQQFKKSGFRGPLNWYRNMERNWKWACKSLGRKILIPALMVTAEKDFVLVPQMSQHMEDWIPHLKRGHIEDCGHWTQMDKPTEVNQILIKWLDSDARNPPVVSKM

physchem = conditions: sodium phosphate buffer, 24 °C, pH 7.4, aqueous buffer, kinetic from dmso stock
Mouse sEH = molecular target: T3, Mouse sEH (Mus musculus, UniProt P34914); experiment: sEH fluorescent-based inhibition assay; format: biochemical
T3 sequence (P34914 1-554): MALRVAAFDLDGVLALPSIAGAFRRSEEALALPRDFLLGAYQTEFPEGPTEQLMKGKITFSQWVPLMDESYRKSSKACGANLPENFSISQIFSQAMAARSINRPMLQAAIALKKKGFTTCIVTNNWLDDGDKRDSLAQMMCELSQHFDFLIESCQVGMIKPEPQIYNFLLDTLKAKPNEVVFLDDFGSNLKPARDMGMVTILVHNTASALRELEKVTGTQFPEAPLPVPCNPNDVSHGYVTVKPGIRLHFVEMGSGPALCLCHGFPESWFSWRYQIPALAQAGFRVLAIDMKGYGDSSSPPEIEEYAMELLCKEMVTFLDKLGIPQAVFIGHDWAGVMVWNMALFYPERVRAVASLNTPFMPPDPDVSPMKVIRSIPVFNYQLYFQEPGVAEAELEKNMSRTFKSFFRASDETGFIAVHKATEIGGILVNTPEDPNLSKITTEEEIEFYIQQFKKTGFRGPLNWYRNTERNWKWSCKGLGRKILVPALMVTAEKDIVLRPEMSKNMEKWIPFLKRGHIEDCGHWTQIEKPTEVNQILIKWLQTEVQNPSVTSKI

[1] = test system: temporomandibular joint (TMJ); conditions: local administration; cited from earlier work
rats = conditions: 1 mg/kg; cited from earlier work

| SMILES | IC50 (Rat sEH) [nM] | IC50 (Human sEH) [nM] | solubility (physchem) [µM] | IC50 (Mouse sEH) [nM] | Effect on formalin-induced hyperalgesia within the temporomandibular joint [1] | Effect on NTG-induced trigeminal hyperalgesia (rats) |
| --- | --- | --- | --- | --- | --- | --- |
| O=C(Nc1ccc(-c2nccc3ccccc23)cc1)C1CCN(S(=O)(=O)c2ccccc2Cl)CC1 [Compound 4a, 1-((2-chlorophenyl)sulfonyl)-N-(4-(isoquinolin-1-yl)phenyl)piperidine-4-carboxamide] | 3.7 | 3.7 | 56 (≈ 28.3 µg/mL) | 283 |  |  |
| O=C(Nc1ccc(-c2cc3ccccc3cn2)cc1)C1CCN(S(=O)(=O)c2ccccc2Cl)CC1 [Compound 4b, 1-((2-chlorophenyl)sulfonyl)-N-(4-(isoquinolin-3-yl)phenyl)piperidine-4-carboxamide] | 11.5 | 18.7 | 51.6 (≈ 26.1 µg/mL) | 236 |  |  |
| O=C(Nc1ccc(-c2cncc3ccccc23)cc1)C1CCN(S(=O)(=O)c2ccccc2Cl)CC1 [Compound 4c, 1-((2-chlorophenyl)sulfonyl)-N-(4-(isoquinolin-4-yl)phenyl)piperidine-4-carboxamide] | 0.8 | 0.4 | 49.2 (≈ 24.9 µg/mL) | 22.3 |  |  |
| O=C(Nc1ccc(-c2cccc3cnccc23)cc1)C1CCN(S(=O)(=O)c2ccccc2Cl)CC1 [Compound 4d, 1-((2-chlorophenyl)sulfonyl)-N-(4-(isoquinolin-5-yl)phenyl)piperidine-4-carboxamide] | 2.2 | 0.4 | 40 (≈ 20.3 µg/mL) | 30.6 |  |  |
| O=C(Nc1ccc(-c2ccc3cnccc3c2)cc1)C1CCN(S(=O)(=O)c2ccccc2Cl)CC1 [Compound 4e, 1-((2-chlorophenyl)sulfonyl)-N-(4-(isoquinolin-6-yl)phenyl)piperidine-4-carboxamide] | 0.5 | 1.8 | 55.8 (≈ 28.2 µg/mL) | 51.3 |  |  |
| O=C(Nc1ccc(-c2cccc3ccncc23)cc1)C1CCN(S(=O)(=O)c2ccccc2Cl)CC1 [Compound 4g, 1-((2-chlorophenyl)sulfonyl)-N-(4-(isoquinolin-8-yl)phenyl)piperidine-4-carboxamide] | 4.7 | 1.4 | 65.6 (≈ 33.2 µg/mL) | 69 |  |  |
| O=C(Nc1ccc(-c2ccccn2)cc1)C1CCN(S(=O)(=O)c2ccccc2Cl)CC1 [Compound 4h, 1-((2-chlorophenyl)sulfonyl)-N-(4-(pyridin-2-yl)phenyl)piperidine-4-carboxamide] | 1.9 |  | 66.7 (≈ 30.4 µg/mL) | 188 |  |  |
| O=C(Nc1ccc(-c2cccnc2)cc1)C1CCN(S(=O)(=O)c2ccccc2Cl)CC1 [Compound 4i, 1-((2-chlorophenyl)sulfonyl)-N-(4-(pyridin-3-yl)phenyl)piperidine-4-carboxamide] | 2.8 | 1.3 | 51.1 (≈ 23.3 µg/mL) | 127 |  |  |
| O=C(Nc1ccc(-c2ccncc2)cc1)C1CCN(S(=O)(=O)c2ccccc2Cl)CC1 [Compound 4j, 1-((2-chlorophenyl)sulfonyl)-N-(4-(pyridin-4-yl)phenyl)piperidine-4-carboxamide] | 3.1 | 1.8 | 50.9 (≈ 23.2 µg/mL) | 133 |  |  |
| Cc1cccc(-c2ccc(NC(=O)C3CCN(S(=O)(=O)c4ccccc4Cl)CC3)cc2)n1 [Compound 4k, 1-((2-chlorophenyl)sulfonyl)-N-(4-(6-methylpyridin-2-yl)phenyl)piperidine-4-carboxamide] | 1.6 | 4.7 | 43.4 (≈ 20.4 µg/mL) | 226 |  |  |
| Cc1ccnc(-c2ccc(NC(=O)C3CCN(S(=O)(=O)c4ccccc4Cl)CC3)cc2)c1 [Compound 4l, 1-((2-chlorophenyl)sulfonyl)-N-(4-(4-methylpyridin-2-yl)phenyl)piperidine-4-carboxamide] | 10.3 | 5.1 | 36.4 (≈ 17.1 µg/mL) | 499 |  |  |
| Cc1cncc(-c2ccc(NC(=O)C3CCN(S(=O)(=O)c4ccccc4Cl)CC3)cc2)c1 [Compound 4m, 1-((2-chlorophenyl)sulfonyl)-N-(4-(5-methylpyridin-3-yl)phenyl)piperidine-4-carboxamide] | 1.1 | 2.6 | 49.4 (≈ 23.2 µg/mL) | 175 |  |  |
| Cc1cc(-c2ccc(NC(=O)C3CCN(S(=O)(=O)c4ccccc4Cl)CC3)cc2)ccn1 [Compound 4n, 1-((2-chlorophenyl)sulfonyl)-N-(4-(2-methylpyridin-4-yl)phenyl)piperidine-4-carboxamide] | 3.6 | 5.8 | 53 (≈ 24.9 µg/mL) | 259 |  |  |
| CCC(=O)N1CCC(NC(=O)Nc2ccc(OC(F)(F)F)cc2)CC1 [TPPU] |  |  |  |  | prevented formalin-induced hyperalgesia |  |
| NC(=O)c1cccc(-c2cc(OC(=O)NC3CCCCC3)ccc2O)c1 [URB937] |  |  |  |  |  | reversed NTG-induced trigeminal hyperalgesia |
